According to a melting point compilation (Tetko et al.; mined from patent text by program, amines drawn as free bases though some values may be those of a salt):

| Compound | melting point |
| --- | --- |
| COCc1cc(C(O)CNCCCCCCOCCCc2ccccc2)ccc1O (centres undefined) | 68 to 70 °C |
| COc1ccc(/C=C/C(=O)c2ccc(C(=O)O)cc2)c(-c2cccs2)c1 | 209 to 211 °C |
| Cc1c(O)cccc1OCc1ccccc1 | 58 to 59 °C |
| COc1nc(C)cnc1NS(=O)(=O)c1cccnc1-c1ccc(N2CCOCC2)cc1 | 197 to 198 °C |
| O=C(C[C@H](NC(=O)OCc1ccccc1)C(=O)Nc1cc(Cc2n[nH]c(=O)c3ccccc23)ccc1F)OCc1ccccc1 | 76 to 80 °C |
| CCC(=O)Nc1ccnn1-c1ncc(Cl)cc1Cl | 116 to 124 °C |
| CCOC(=O)C(C(=O)OCC)C(CC#N)c1ccc(CC)cc1 (centres undefined) | 157 to 159 °C |
| COC(=O)C(c1ccc(Cl)cc1)c1c(Cl)cc(-n2ncc(=O)n(C)c2=O)cc1Cl (centres undefined) | 173 °C |
| Cc1cc(C)c([N+](=O)[O-])cc1N1CCCCC1=O | 134 to 135 °C |
| CC(=O)C(=NNc1cccc(C)c1)Sc1ccc(Cl)cc1 | 112 to 114 °C |
| CSCC(=O)[C@H](CCc1ccccc1)NC(=O)[C@H](CC(C)C)NC(=O)OCc1ccccc1 | 119 to 120 °C |
| Cc1ncncc1C(=O)Nc1ccc(-n2nc(C(F)(F)F)cc2C2CC2)nc1 | 159 to 160 °C |
| COc1ccc(Sc2sccc2C=O)cc1 | 58 to 60 °C |
| CCOC(=O)C1=C(C)NC(C(OCC)OCC)=C(C(=O)OCC)C1c1ccccc1[N+](=O)[O-] (centres undefined) | 80 to 81.5 °C |
| CNC(C)C(=O)Nc1cccc2c1C(=O)c1c(NC(=O)C(C)NC)cccc1C2=O (centres undefined) | 233 to 234 °C |
| CC(=O)C(Cc1ccc(O)cc1)C(C)=O | 93 to 94.5 °C |
| COC(=O)CN1C(=O)[C@H](C(C)C)Oc2c(C(C)C)cccc21 | 67 to 68 °C |
| CC(C)(Oc1ccc(CNc2ccc(Cl)cc2)cc1)C(=O)O | 155 to 158 °C |
| CCCCOc1ccc(C(=O)N(C)Cc2cccc(-c3ccc(CC4SC(=O)NC4=O)cc3)c2)cc1 (centres undefined) | 116 °C |
| O=C(NCC1(c2ccccc2)CCCCC1)Nc1cccc(Cl)c1Cl | 214 to 215 °C |
| COc1ccc2[nH]cc(CCNC=O)c2c1Cl | 120 to 121 °C |
| CC(C)(C)OC(=O)CNc1nccc(-c2nc(=O)c3ccccc3s2)n1 | 247 to 248 °C |
| Nc1ccc(OC2=C(Oc3ccc(N)cc3)C(F)(F)C(F)(F)C2(F)F)cc1 | 78 to 83 °C |

| Compound | melting point |
| --- | --- |
| C[C@@H]1N=C(c2ccccc2F)c2cc([N+](=O)[O-])ccc2N(C)C1=O | 95 to 110 °C |
| Cc1cc(OCc2ccc(-c3ccc(OC(F)(F)F)cc3)nc2)ccc1OC(C)(C)C(=O)O | 146 to 148 °C |
| CCCC(=O)N[C@H]1CC[C@H](CCN2CCN(c3nccc4c3CCO4)CC2)CC1 | 191 °C |
| CCC(=O)NC(Cl)C(Cl)(Cl)CCl (centres undefined) | 167 °C |
| Cn1c(COc2ccc(CC3SC(=O)NC3=O)cc2)nc2ccc(-c3ccccc3)nc21 (centres undefined) | 211 to 213 °C |
| COc1cc(C(N)=O)ccc1-c1nc2cc3c(cc2[nH]1)NC(=O)C3(C)C | 265 to 270 °C |
| Cc1nn(-c2ccc(C(F)(F)F)cn2)cc1COc1cc(CCC(=O)O)n(C)n1 | 154 to 155 °C |
| CC(C)(Cc1c(C(C)(C)C)c2cc(OCc3ccc4ccccc4n3)ccc2n1Cc1ccc(Cl)cc1)C(=O)O | 201 to 202 °C |
| O=C(O)C1Oc2cc(Cl)c(S(=O)(=O)c3cc(Cl)cc(Cl)c3)cc2O1 (centres undefined) | 166 to 169 °C |
| COc1cc2c(N)nc(N3CCN(c4nc5cccccc-5n4)CC3)nc2c(OC)c1OC | 284 to 285 °C |
| COc1ccc(-c2nc3cc(C(N)=O)ccc3[nH]2)c2ccc(C(F)(F)F)nc12 | 205 to 207 °C |
| C[C@H](CO)Nc1nc(SCc2cccc(F)c2F)nc2[nH]c(=O)c(NCc3ccccc3)nc12 | 80 to 100 °C |
| O=c1c(-c2cccs2)nc2ccccc2n1CC1CCCO1 (centres undefined) | 123 °C |
| O=C1Nc2cccnc2N(C(=O)CCC#CCN2CCCCC2)c2ccccc21 | 197 °C |
| Brc1cnc(SCc2ccccc2)nc1SCc1ccccc1 | 66 to 67 °C |
| CCOC(=O)C=Cc1ccc2c(c1)CC(NC(=O)OC(C)(C)C)CC2 (centres undefined) | 99 to 100 °C |
| CC(=O)OCc1ccc(-c2nc(=O)c3ccccc3s2)cn1 | 171 to 172 °C |
| Fc1ccc(C(CN2CCCC2)=C2SCCCS2)cc1 | 69 to 70 °C |
| CCCCc1c2c(nn1-c1ccccc1)c(Cl)nc1ccccc12 | 239 to 243 °C |
| COc1ccc(C(C)C)cc1-c1cc(C(=O)NC2CCN(C(=O)OC(C)(C)C)CC2)c(OCc2ccccc2)cc1OCc1ccccc1 | 168 to 170 °C |
| CC(C)(C)OC(=O)N[C@H]1CN(N=C(c2ccccc2)c2ccccc2)C1=O | 167 to 170 °C |
| CC(C)(C)c1cc(-c2csc(CNc3ccccc3)n2)cc(C(C)(C)C)c1O | 147 to 148 °C |
| CCOC(=O)C=Cc1ccc([N+](=O)[O-])c(C)c1 | 90 to 92 °C |

| Compound | melting point |
| --- | --- |
| O=C(O)c1ccc(OCCNC(=O)C2Cc3ccccc3N2S(=O)(=O)c2ccc(-c3ccc(F)cc3OC(F)F)cc2)cc1 (centres undefined) | 70 °C |
| c1ccc(-c2cnc3c(c2)nnc2cncn23)cc1 | 225 to 227 °C |
| CN(C)c1ccc2c(=O)c(-c3nnnn3C)cn(C)c2c1 | 280 to 283 °C |
| CS(=O)(=O)c1ccc(-c2[nH]nc(C(CCCO[N+](=O)[O-])=NO)c2-c2ccc(C#N)cc2)cc1 | 146 to 147 °C |
| COc1cc2c(Nc3ccc(Sc4nccn4C)c(Cl)c3)c(C#N)cnc2cc1/C=C/CCCN1CCN(C)CC1 | 215 to 221 °C |
| CCOC(=O)c1cnc2c(c1NCCN(C)C)NC(=O)CN2 | 183 to 185 °C |
| CCCCC1(CC)COP(=O)(Cc2ccc([N+](=O)[O-])cc2)OC1 (centres undefined) | 111 to 112 °C |
| NS(=O)(=O)c1cc2c(cc1Cl)C(=O)N(Cc1ccccn1)C2=O | 240 to 242 °C |
| COc1ccc2cc(-c3oc4ccccc4c3C(O)CC3CCCC3)ccc2c1 (centres undefined) | 176 to 177 °C |
| Fc1ccc(-c2ncnc(C(F)(F)F)c2Cl)c(F)c1 | 61 to 63 °C |
| CC1CCc2c(N3CCC(O)CC3)ccc3c(=O)c(C(=O)O)cn1c23 (centres undefined) | 238 to 240 °C |
| COc1cc(C(C)=O)ccc1C1CCCCO1 (centres undefined) | 67 to 69 °C |
| Cn1c(C(F)(F)F)cc(=O)n(-c2ccc(O)cc2F)c1=O | 185 to 190 °C |
| COc1ccc(N2CCN(CCN3CCC(c4noc5cc(F)ccc45)CC3)C2=O)cc1 | 154 to 157 °C |
| Cc1c(SCCSCc2ccncc2)ccnc1CNc1cnc2ccccc2c1 | 123 to 126 °C |
| O=CC12CC(c3ccccc31)c1ccc(Cl)cc12 (centres undefined) | 91 to 92 °C |
| O=C(c1ccccc1)c1nc(Br)c(Br)[nH]1 | 215 to 217 °C |
| N#CC(c1ccc([N+](=O)[O-])cc1)c1ccc(Cl)cc1Cl (centres undefined) | 81 to 82.5 °C |
| O=CCCc1cn(-c2cccnc2)c2ccccc12 | 44 to 45 °C |
| CC(=O)ONC(=N)c1ccc(NC(=O)CCCC(=O)Nc2ccc(C(=N)NOC(C)=O)cc2)cc1 | 225 to 228 °C |
| N#CCc1c[nH]c2ccc(N)cc12 | 125 to 130 °C |
| Cc1ccc2cccc(OCc3c(Cl)ccc(S(=O)(=O)N(C)Cc4ccccc4)c3Cl)c2n1 | 154 °C |
| CC(=O)Oc1cc(C)c(C)cc1C1(OC(C)=O)C(=O)c2ccccc2C1=O | 206 to 207 °C |
